Read-outs that look alike come from different tables or passages of the source.
Assays:
Leukemia L1210 [1] = assay: Activity against Leukemia L1210, intraperitoneal, increase in life span of mice; type: in vivo, female mice (BDF1 family); conditions: for Survivors after 60 days / Max. ILS % / Therapeutic ratio TR: ip; for Survivors after 60 days: 6-membered group; for Max. ILS %: 60-day observation, versus control; for Therapeutic ratio TR: O.D./ILS30; for ED (maximum ILS) / ED30: Mus musculus, L1210, ip; for ED (maximum ILS): read-out: O.D. (optimum dosage); for ED30: read-out: ILS30
How it was run: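 Mice (female BDF1, 20–23 g) carrying 1×10^5 ip-implanted L1210 cells were given daily ip or oral doses for 5 days; ILS% came from mean survival over 60 days relative to controls.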

[2] = Acute toxicity (LD50, Behrens-Karber method); type: in vivo, ICR mice; conditions: ip, mortality during 30 days; for LD50 at 720 h: mouse, in vivo
Protocol: Test compounds, dissolved or suspended in 0.5% aqueous CMC, were each intraperitoneally administered to ICR mice in a dose of 0.1 ml per 10 g body weight. LD50 (mg/kg) value of each test compound was calculated from the mortality of mice during 30 days by the Behrens-Karber method.

Ehrlich acites carcinoma = assay: Growth-inhibiting effect against Ehrlich acites carcinoma; type: in vivo, male mice; conditions: 5 days; for response vs control in vivo at 3.2 mg/kg: 3.2 mg/kg/day ip; for response vs control in vivo at 6.3 mg/kg: 6.3 mg/kg/day ip
How it was run: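 Activity graded from T/C% of total packed ascites cell volume on day 7 (treated vs untreated): - 100-66, + 65-41, ++ 40-11, +++ 10-0. Groups of 6 male mice bore 1×10^7 i.p.-implanted cells and received compound (1% Nikkol HCO-60) i.p. daily for 5 days from 24 hrs after implantation.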

Leukemia L1210 [3] = assay: Activity against Leukemia L1210, oral, increase in life span of mice; type: in vivo, female mice (BDF1 family); conditions: for Survivors after 60 days / Max. ILS % / Therapeutic ratio TR: oral; for Survivors after 60 days: 6-membered group; for Max. ILS %: 60-day observation, versus control; for Therapeutic ratio TR: O.D./ILS30; for ED (maximum ILS) / ED30: Mus musculus, L1210; for ED (maximum ILS): read-out: O.D. (optimum dosage); for ED30: read-out: ILS30
Protocol: Tests were conducted in accordance with the method for measuring antitumor activity of National Cancer Center Tokyo (A, Hoshi et al, Farumashia 9 464 (1973)). Test compounds were each intraperitoneally (referred to as ip) or orally (referred to as op) administered once a day for 5 successive days to a 6-membered group of femal mice (BDF1 family, each weighing 20 to 23 g) 24 hours after 1×10^5 cells of Leukemia L1210 have been implantated into the abdominal cavities of the mice, and the effect was evaluated by comparing the survival days of treated groups with those of an untreated group of mice (control group) in 60-day observation. An increase percentage of life span (ILS%) was calculated from said average survival days compared with those of the control group. Further, therapeutic ratio (O.D./ILD30, referred to as T.R.) of each tested compound was calculated from the daily dosage of the compound necessary to increase said average survival days by 30% as compared with the control group (this dosage is referred to as ILS 30) and the daily dosage giving a maximum increase of life span to mice implantated with L1210 cells, namely an optimum dosage (referred to as O.D.). The results of five successive days intraperitoneal administrations of test compounds were shown in Tables I to III, and those of five successive oral administrations in Table IV.

[4] = ip once a day for 5 successive days, daily dosage giving maximum increase of life span
[5] = ip once a day for 5 successive days, daily dosage increasing average survival days by 30%
[6] = oral once a day for 5 successive days, daily dosage giving maximum increase of life span
[7] = oral once a day for 5 successive days, daily dosage increasing average survival days by 30%
[8] = Mus musculus, Ehrlich, 120 h, read-out: Activity
[9] = Mus musculus, Ehrlich, 120 h, read-out: T/C %

Compound | Survivors after 60 days (Leukemia L1210 [1]) | Max. ILS % (Leukemia L1210 [1]) [%] | Therapeutic ratio TR (Leukemia L1210 [1]) | Survivors after 60 days (Leukemia L1210 [3]) | Max. ILS % (Leukemia L1210 [3]) [%] | Therapeutic ratio TR (Leukemia L1210 [3]) | ED (maximum ILS) (Leukemia L1210 [1]; [4]) [mg/kg] | ED30 (Leukemia L1210 [1]; [5]) [mg/kg] | LD50 at 720 h [2] [mg/kg] | ED (maximum ILS) (Leukemia L1210 [3]; [6]) [mg/kg] | ED30 (Leukemia L1210 [3]; [7]) [mg/kg] | further results
3-tert-butyl-3-(methoxy-2-n-butyl β-D-glucopyranose-6-yl)-1-(2-chloroethyl)-1-nitrosourea [Compound 178] | 6/6 | > 700 | 66.5 | 5/6 | > 625 | 22.4 |  |  |  |  |  | O.D. (optimum dosage) (Leukemia L1210 [1]; [4]): 180 mg/kg; ILS30 (Leukemia L1210 [1]; [5]): 2.71 mg/kg; LD50 [2]: 570 mg/kg; Activity (Ehrlich acites carcinoma; 25 mg/kg/day ip): +++ (T/C% 10-0); T/C % (Ehrlich acites carcinoma; 25 mg/kg/day ip): 0%; Activity (Ehrlich acites carcinoma; 100 mg/kg/day ip): +++ (T/C% 10-0); T/C % (Ehrlich acites carcinoma; 100 mg/kg/day ip): 0%; O.D. (optimum dosage) (Leukemia L1210 [3]; [6]): 210 mg/kg; ILS30 (Leukemia L1210 [3]; [7]): 9.38 mg/kg
CO[C@H]1O[C@H](CNC(=O)N(CCCl)N=O)[C@@H](O)[C@H](O)[C@H]1O [Compound 6MCαG, 3-(methyl α-D-glucopyranose-6-yl)-1-(2-chloroethyl)-1-nitrosourea, reference compound] | 6/6 | > 700 | 25.5 | 6/6 | > 700 | 6.86 | 13.5 | 0.53 | 40 | 16.8 | 2.45 | Activity (toxicity in words) (Ehrlich acites carcinoma; 12.5 mg/kg/day ip): Toxic (2/6); response vs control in vivo at 3.2 mg/kg (Ehrlich acites carcinoma; [8]): 0 to 10%; response vs control in vivo at 3.2 mg/kg (Ehrlich acites carcinoma; [9]): 0%; response vs control in vivo at 6.3 mg/kg (Ehrlich acites carcinoma; [8]): 0 to 10%; response vs control in vivo at 6.3 mg/kg (Ehrlich acites carcinoma; [9]): 0%; response vs control in vivo at 12.5 mg/kg (Ehrlich acites carcinoma; Mus musculus, Ehrlich, 120 h, 12.5 mg/kg/day ip, read-out: T/C %): 0%
CC(C)CO[C@H]1O[C@H](CN(CC(C)(C)C)C(=O)N(CCCl)N=O)[C@@H](O)[C@H](O)[C@H]1O [Compound 183, 3-neopentyl-3-(isobutyl α-D-glucopyranose-6-yl)-1-(2-chloroethyl)-1-nitrosourea] | 6/6 | > 700 | 56.4 | 4/6 | > 460 | 15.2 | 170 | 3.01 | 520 | 200 | 13.2 | 
CCC(COC)O[C@H]1O[C@H](CN(CC(C)(C)C)C(=O)N(CCCl)N=O)[C@@H](O)[C@H](O)[C@H]1O (stereo partly drawn) [Compound 185, 3-neopentyl-3-(1-methoxy-2-n-butyl α-D-glucopyranose-6-yl)-1-(2-chloroethyl)-1-nitrosourea] | 6/6 | > 700 | 63.1 | 5/6 | > 625 | 24.5 | 170 | 2.69 | 550 | 200 | 8.16 | 
COCCCO[C@H]1O[C@H](CN(CC(C)(C)C)C(=O)N(CCCl)N=O)[C@@H](O)[C@H](O)[C@H]1O [Compound 186, 3-neopentyl-3-(3-methoxy-n-propyl α-D-glucopyranose-6-yl)-1-(2-chloroethyl)-1-nitrosourea] | 6/6 | > 700 | 64.3 | 5/6 | > 620 | 23.4 | 160 | 2.49 | 520 | 200 | 8.55 | 
CCOCCO[C@H]1O[C@H](CO)[C@@H](O)[C@H](O)[C@H]1N(CCC(C)(C)C)C(=O)N(CCCl)N=O [Compound 192, 3-(3,3-dimethyl-n-butyl)-3-(2-ethoxyethyl α-D-glucopyranose-2-yl)-1-(2-chloroethyl)-1-nitrosourea] | 6/6 | > 700 | 58.4 | 5/6 | > 625 | 20.3 | 160 | 2.74 | 515 | 200 | 9.85 | 
COCCOCCO[C@H]1O[C@H](CN(C(=O)N(CCCl)N=O)C(C)(C)C)[C@@H](O)[C@H](O)[C@H]1O [Compound 197] | 6/6 | > 700 | 59.2 | 5/6 | > 625 | 21.6 | 160 | 2.7 | 530 | 200 | 9.26 | 
COC(C)CCO[C@H]1O[C@H](CN(C(=O)N(CCCl)N=O)C(C)(C)C)[C@@H](O)[C@H](O)[C@H]1O (stereo partly drawn) [Compound 198, 3-tert-butyl-3-(3-methoxy-n-butyl α-D-glucopyranose-6-yl)-1-(2-chloroethyl)-1-ntirosourea] | 6/6 | > 700 | 65.3 | 5/6 | > 640 | 22.7 | 180 | 2.76 | 570 | 220 | 9.69 | 
O=NN(CCCl)C(=O)N[C@H]1C(O)O[C@H](CO)[C@@H](O)[C@@H]1O (some centres unmarked) [DCNU, reference compound] | 5/6 | > 625 | 8.9 | 0/6 | 20 |  | 6.2 | 0.7 | 39 | 100 |  | 
